Data reported in PMC12188386, “Selective CBP/EP300 Bromodomain Inhibitors: Novel Epigenetic Tools to Counter TNF-α-Driven Inflammation” (JACS Au, 2025).

Tests used:
Caco-2 cells = assay: bidirectional Caco-2 permeability assay; type: in vitro ADME; details: for Papp Replicate 1 / Papp Replicate 2: 120 min; for membrane permeability (Caco-2), in words: bidirectional Caco-2 assay
Experimental: (§1) Bidirectional Caco-2 Permeability Assay (provided by Cyprotex Discovery Ltd; Cheshire, UK)19 Following a standard Cyprotex procedure, Caco-2 cells (ATCC), used at passages 40–60, were seeded nt ranswe inserts at a densit f × ⁵ ce s/cm² and maintained in with media changes carried out every 2–3 days. Permeability assays were performed between days 18–22 post-seedin . pr cedures were c nducted at ° in a humidified incu at r with O₂. On the day of the assay, monolayers were prepared by rinsing both the apical and basolateral compartments with pre-warmed anks’ a anced a t uti n at the desired pH and incubated with HBSS on both sides for 30 minutes to equilibrate the compartments. The dosing solutions were obtained by diluting the test compounds in assay uffer t a c ncentrati n f with a fina O c ncentrati n f ≤ v/v and Lucifer yellow was included as a fluorescent marker to assess monolayer integrity. Analytical standards were prepared similarly, omitting the Lucifer yellow . For apical-to-basolateral (A– B) measurements, the dosing solution was applied to the apical chamber and buffer to the basolateral side, while the configuration was reversed for basolateral-to-apical (B–A) measurements. After a 120 min incubation, samples from both compartments were collected and diluted for quantification. Permeability was assessed in duplicates, and reference […]
(§2) compounds with known characteristics were included as controls. Quantification of test and control compounds was performed by LC-MS/MS using an 8-point calibration curve under Cyprotex standard analytical conditions. The initial concentration (C0) at time zero was determined from the dosing solution, and recovery was calculated based on concentrations […]
(§3) The apparent permeability coefficient (Papp) is calculated from the equation (where dQ/dt is the drug permeation rate across the cells, C0 is the concentration in the donor compartment at time zero, and A is the area of the cell monolayer):
(§4) Efflux ratio (ER) is calculated from mean A-B and B-A data: […]
(§5) Cells were fixed in situ with cold TCA: untreated cells at the time of compound addition (Tz) and treated cells 48 h after addition of compound (Ti). Cells were washed, then su f rh damine s uti n μ at . w/v in acetic acid was added to each well and incubated for 10 minutes at room temperature. After washing again, the plates were air dried and bound stain solubilized with 10 mM Trizma base before absorbance was […]
(§6) Percentage growth (%Growth) was calculated as follows:
(§7) when Ti ≥ Tz, %Growth = Ti − Tz x 100 where Ti = absorbance from compound treated cells, Tz = absorbance from untreated cells at time zero, and C = absorbance from control (DMSO) treated cells.
(§8) HEK293T, MRC5 and LP1 cells were cultured in DMEM (Gibco 41966 -029) containing 10 % or 15 % (LP1) FBS (Gibco 10270106 or Sigma F9665), 1 % non-essential amino acids (MRC5 only, […]
(§9) cultured in RPMI 1640 (Gibco 21875-034) containing 10 % FBS and 1 % P/S. All cells were grown in a humidified incubator with 5 % CO 2 at 37 °C.

[1] = bidirectional Caco-2 permeability assay; type: in vitro ADME; details: human; for Papp A→B at 120 min / Papp B→A at 120 min / efflux ratio at 120 min: Caco-2; for Papp A→B at 120 min: Direction: A-B (apical-to-basolateral); for Papp A→B at 120 min / Papp B→A at 120 min: n=2; for Papp B→A at 120 min: Direction: B-A (basolateral-to-apical); for efflux ratio at 120 min: from mean A-B and B-A data, read-out: Efflux Ratio (Papp(B-A)/Papp(A-B))
Experimental: as §1, §2, §3, §4, §5, §6, §7, §8, §9

[2] = system: myc expression in LP1 cells; assay: myc mRNA expression by RT-qPCR; type: cell-based; details: 4 h treatment of LP1 cells with 1 μM compound
Experimental: For myc expression, 1x10^6 LP1 cells were plated the day prior to a 4 h treatment with compounds at a final DMSO concentration of 0.1 %. […]
In all cases, total
RNA was extracted using the NucleoSpin® RNA kit (Machery -Nagel) and used for cDNA synthesis with the High -Capacity cDNA Reverse Transcription kit (Applied Biosystems). RT-qPCR reactions were performed using PowerSYBR™ green PCR Master Mix (Applied Biosystems) and a LightCycler® 480 (Roche). cDNA was denatured for 10 min at 95 °C followed by 40 cycles of 15 s at 95 °C and 1 min at 60 °C. Cp values were determined as the maximum of the second derivative and target gene expression was compared to that of hprt from the same sample using the 2-ΔCp method. Gene expression was then normalized to the average of the control samples from the same day, or all biological replicates. […]

[3] = Direction: A-B (apical-to-basolateral)
[4] = Direction: B-A (basolateral-to-apical)
[5] = Caco-2, Direction: A-B (apical-to-basolateral)
[6] = Caco-2, Direction: B-A (basolateral-to-apical)

Row | SMILES | Papp Replicate 1 (Caco-2 cells; [3]) | Papp Replicate 2 (Caco-2 cells; [3]) | Papp Replicate 1 (Caco-2 cells; [4]) | Papp Replicate 2 (Caco-2 cells; [4]) | membrane permeability (Caco-2), in words (Caco-2 cells) | recovery at 120 min [1, 5] [%] | recovery at 120 min [1, 6] [%] | Papp A→B at 120 min [1] [×10⁻⁶ cm/s] | Papp B→A at 120 min [1] [×10⁻⁶ cm/s] | efflux ratio at 120 min [1] | myc mRNA expression [2]
1 | CC(=O)Nc1cc(NC(=O)c2ccco2)cc(C(=O)Nc2cccc3nnc(C)cc23)c1 [Compound 1] | 0.0348 10-6 cms-1 | 0.0401 10-6 cms-1 | 11.6 10-6 cms-1 | 11.5 10-6 cms-1 | very low membrane permeability | 80 | 87.3 | 0.0375 | 11.5 | 307 | not observed
2 | Cc1cc2c(NC(=O)c3cc(NC(=O)c4ccco4)cc(-c4ccn(C)n4)c3)cccc2nn1 [Compound 2] | 0.565 10-6 cms-1 | 0.533 10-6 cms-1 | 28.9 10-6 cms-1 | 29.2 10-6 cms-1 | improved cellular permeability | 47 | 61.8 | 0.549 | 29 | 52.9 | significantly decrease myc expression levels
3 | Cc1cc2c(NC(=O)c3cc(NC(=O)[C@H]4CCCO4)cc(-c4ccn(C)n4)c3)cccc2nn1 [Compound 5] | 0.57 10-6 cms-1 | 0.677 10-6 cms-1 | 34.2 10-6 cms-1 | 30.9 10-6 cms-1 | improved cellular permeability | 68.2 | 78 | 0.623 | 32.5 | 52.2 | significantly decreased the expression level of myc
